Data taken from patent US11931332B2, “Phenyl alkyl carbamate compounds for use in preventing or treating neurodegenerative disease” (priority 2020, dated 2024).

Key:
[1] = tested on: Phosphorylated alpha-synuclein (s129); assay: Double immunostaining for TH and p-α-synuclein, inclusions in cell bodies of TH+ neurons of rotenone mice; format: in vivo, C57BL/6 mice; details: rotenone 30 mg/kg orally, Example 124 40 mg/kg IP once a day for 35 days; FIG. 5(A-B)
Method: (§1) Mice were randomly divided into four groups: • Group 1: vehicle control mice, • Group 2: Compound of Example 124—treated mice, • Group 3: rotenone treated mice, • Group 4: Compound of Example 124—rotenone treated mice.
(§2) Rotenone was suspended in 0.5% Carboxymethyl cellulose (CMC) sodium salt. Compound of Example 124 were dissolved in Tween 80. 0.5% CMC and Rotenone (30 mg/kg) were administered orally, the compound of Example 124 (40 mg/kg) was injected intraperitoneally (IP) once a day for 35 days (5 weeks).
Specifically, mice of Biological Experiment Example 1 were anesthetized with sevoflurane and perfused with PBS (phosphate-buffered saline). After perfusion, dissected the left hemisphere of the brain from the mice and fixed the right hemisphere brain with 4% PFA for 1 day [Shin, S. J., et al., Jowiseungchungtang Inhibits Amyloid-beta Aggregation and Amyloid-beta-Mediated Pathology in 5XFADMice. Int J Mol Sci, 2018. 19(12).]. The frozen brain was sectioned in the coronal way (30 μm thick) using a cryostat (Leica CM3000, Leica Microsystems, Nussloch, Germany). Sections were stored at deep freezer (−70° C.) until the immunohistochemistry analysis starts.
In all immunofluorescence labeling procedures, rinsed off the brain sections and blocked the tissues with cold PBST (0.1% Triton X-100 in PBS) containing 5% BSA and 5% goat serum at room temperature. […]

[2] = tested on: Amyloid-beta precursor protein (APP); assay: Western blot of APP in Alzheimer's disease in vitro model (SH-SY5Y cells transfected with pcDNA3-APPswe); format: cell-based, human; details: Example 124 100 uM, harvested 24 h after treatment, FIG. 7
Method: In the present invention, the amyloid-beta precursor protein (APP) reduction effect of the compound of Example 124 in an In Vitro model of Alzheimer's disease (AD) was confirmed.
SH-SY5Y, a human neuroblastoma cell line, was used, and when the pcDNA3-APPswe vector was transfected, these cells generate an AD-inducing APP.
SH-SY5Y cells were incubated in DMEM with 10% FBS and 1% penicillin/streptomycin. 500,000 cells/well was plated in a 6 well plate and transfected 24 h later.
Cells were transfected with pcDNA3-APPswe or pcDNA3 vectors using Lipofectamine 2000 (Invitrogen). After 4 h incubation, the transfection mixture (Lipofectamine+Vector) was replaced with 10% FBS in DMEM. compound of Example 124 (100 uM) or vehicle was treated in 20 h after transfection.
Cells were harvested 24 h after the compound of Example 124 treatments. Cells were washed twice with ice-cold PBS and lysed in RIPA buffer (1% Triton X-100, 0.5% deoxycholic acid, 0.2% SDS, 150 mM sodium chloride, 2 mM EDTA) with 1 mM PMSF, 2 ug/ml aprotinin, 10 ug/ml leupeptin, and 10 mM sodium fluoride.
The lysate was passed several times through a 26½-gauge syringe needle and centrifuged at 16,200*g for 20 min. The supernatant was quantified with the Bradford assay. 30 ug of protein samples, separated by SDS-PAGE, were transferred to the PVDF membrane. […]

[3] = tested on: TH+ neurons (dopaminergic neurons); assay: Immunohistochemistry with tyrosine hydroxylase (TH) antibody, counting of TH+ neurons in rotenone mice; format: in vivo, C57BL/6 mice; details: rotenone 30 mg/kg orally, Example 124 40 mg/kg IP once a day for 35 days, FIG. 3(A-B)
Method: as §1, §2
Dopaminergic neuron loss has been implicated in motor dysfunction in Parkinson's disease. In the present invention, stained the striatum with Tyrosine hydroxylase (TH) antibody to check out whether compound of Example 124 prevents the TH+ neuron cell death by rotenone.
(§3) Specifically, mice of Biological Experiment Example 1 were anesthetized with sevoflurane and perfused with PBS (phosphate-buffered saline). […]
All the images were taken using a fluorescence microscope (Leica DM LB2). To determine the loss of TH positive neurons and the prevention effect of the compound of Example 124 in the striatum, TH+ neurons were counted by using a cell counter plugin from ImageJ software (NIH).
Immunofluorescence images were analyzed using one-way ANOVA and post hoc analysis using Tukey's post hoc test (GraphPad Prism). […]

[4] = tested on: Tyrosine hydroxylase (TH); assay: Western blotting of tyrosine hydroxylase (TH) in ventral midbrain protein of rotenone mice; format: in vivo, C57BL/6 mice; details: rotenone 30 mg/kg orally, Example 124 40 mg/kg IP once a day for 35 days, FIG. 3(C-D)
Method: as §1, §2
(§4) Whole ventral midbrain was homogenized with RIPA buffer containing 1% Triton X 100, 0.5% deoxycholic acid, 0.2% SDS, 150 mM NaCl, 2 mM EDTA, protease inhibitors (PMSF, Aprotinin, NaF, Na3VO4). The homogenate was centrifuged at 13,000 rpm for 30 min on a rotator and the supernatant was used [Vergara, C., et al., Amyloid-beta pathology enhances pathological fibrillary tau seeding induced by Alzheimer PHF in vivo. Acta Neuropathol, 2019. 137(3): p. 397-412.]. Proteins were separated using SDS-PAGE with a concentration gradient of 8-20% SDS gels and transferred onto PVDF membranes (Immobilon P membrane, Millipore). Membranes blocked in 5% skim milk in TBST (Tris-Buffered saline-Tween®20) and immunolabeled with primary antibody, rabbit anti-tyrosine hydroxylase (TH) antibody (1:5000)). […]
(§5) Western blot data were analyzed using a t-test(1-tailed t-test). […]

[5] = tested on: Acetylated alpha-tubulin (Ace-α-tubulin); assay: Western blotting of acetylated alpha-tubulin in rotenone mice; format: in vivo, C57BL/6 mice; details: Example 124-rotenone-treated group; differences between groups not significant; FIG. 4
Method: as §1, §2, §4, §5

[6] = tested on: rotenone-induced Parkinson's disease model mice; assay: Pole test in rotenone-induced Parkinson's disease model mice; format: in vivo, C57BL/6 mice; details: rotenone 30 mg/kg orally, Example 124 40 mg/kg IP once a day for 35 days; vs rotenone group; not significantly; FIG. 1(B-C)
Method: (§6) C57BL/6 mice (n=61) were purchased from Samtako bio korea Co. Ltd (Osan, Korea.) Mice were housed in the room which offers 12 hours light/dark cycle with a temperature of 20˜22° C.
as §1, §2
(§7) In the present invention, in order to confirm whether the compound of Example 124 (compound 124) improves the motor abnormalities found in rotenone-induced Parkinson's disease model mice, rota-rod test, pole test, and foot printing assay test were performed.
Pole test was performed using the Parkinson's disease model mice of Biological Experiment Example 1 as follows. […] Each trial was recorded through the camera locating in front of the pole. The time mice turned upside down (head down) and the time it completely climbs down the pole was measured through a recorded video file manually by using the software Boris. Results from manually counted files were scored and presented.

GFAP-positive astrocytes = assay: GFAP immunohistochemistry, activation level of astrocytes in striatum of rotenone mice; format: in vivo, C57BL/6 mice; details: rotenone 30 mg/kg orally, Example 124 40 mg/kg IP once a day for 35 days, FIG. 6
Method: as §1, §2, §3
(§8) To determine whether the compound of Example 124 affects regulating the activities of Rotenone-induced reactive astrocyte and microglia, in the present invention, obtained images of brain tissues stained with GFAP (Astrocyte marker) and Iba-1(microglia marker) antibodies. Through acquired images analyzed the activation level of astrocytes and microglia respectively by measuring fluorescent intensity. […]
(§9) All the images were taken using a fluorescence microscope (Leica DM LB2). […] The signal intensity of GFAP and Iba-1 was measured in the chosen fields of the equal area using Image J.

Amyloid-beta (Aβ) [7] = assay: Anti-Aβ staining of brain tissue sections (choroid plexus cells) of treated mice; format: in vivo, C57BL/6 mice; details: orally administered for 6 weeks; vs vehicle (30% PEG400) mice; FIG. 9
Method: Amyloid-beta (Aβ) is a substance that is naturally produced and degraded In Vivo. Therefore, in the present invention, it was attempted to determine whether Amyloid-beta production was reduced in the compound of Example 124-treated mice.
C57BL/6 mice were purchased from Samtako bio Korea Co. Ltd (Osan, Korea.) Mice were housed in the room which offers a 12 hours light/dark cycle with a temperature of 20˜22° C. All experiments and animal care were approved by the Institutional Animal Care and Use Committee of Chonnam National University (Korea).
Mice were divided into a vehicle mice group and a drug-treated group, and then the vehicle (30% PEG400) or compound of Example 124 was orally administered for 6 weeks.
Mice were anesthetized with sevoflurane and perfused with PBS. After perfusion, the right hemisphere brain was fixed with 4% paraformaldehyde for one day. The frozen brains were sectioned at 30 um thickness. The tissue sections were blocked with 3% Goat serum and 3% BSA in cold PBS-T (0.15% Tx-100) for 30 min. Sections were then stained using anti-Aβ (ab5078p, millipore) 1:3000 in PBS. After 3 days of primary antibody labeling, sections were incubated with an Alexa Fluor 568 conjugated secondary antibody for 1 day. For each mouse, 8-10 tissue sections were quantified, and the Aβ intensity was measure at 15 choroid plexus cells. The measurement was done using Image J software.

[8] = tested on: phosphorylated tau (p-Tau s262); assay: Western blotting of phosphorylated tau (p-Tau s262) in rotenone mice; format: in vivo, C57BL/6 mice; details: Example 124-rotenone-treated group vs rotenone-vehicle group; not significantly; FIG. 4
Method: as §1, §2, §4, §5

Amyloid-beta (Aβ) [9] = assay: Immunofluorescence of amyloid-beta in primary cultured cortical neurons; format: cell-based; details: primary cortical neurons treated with amyloid-beta and Example 124 (4 uM) together; FIG. 8
Method: Primary cortical neurons were harvested from the E12-14 embryo. Briefly, isolated cortices were incubated for 20 min at 37° C. in HBSS with 0.25% trypsin-EDTA, 0.1% DNase I. The cortices were dissociated by trituration in NBA media (Neurobasal medium with 2% B27, 2 mM 1-glutamine, and 1% penicillin/streptomycin). Cells were plated in poly-D-lysine coated 24-well plates at 50,000 cells/well. After 3 days of culture, Amyloid-beta and compound of Example 124 (4 uM) were treated.
Cortical neurons were fixed for 15 min at room temperature with 4% paraformaldehyde and 4% sucrose in PBS solution. Fixed neurons were incubated with blocking buffer (3% goat serum, 3% BSA in PBS-T (0.15% Triton-X100)) for 30 min at room temperature. After labeling with a primary antibody, cells were incubated with Alexa Fluor 488- or 568-conjugated secondary antibody. Aβ (6e10, Covance, 1:3000) and NeuN (abl77487, Abcam, 1:2000) were used as primary antibody.

[10] = tested on: rotenone-induced Parkinson's disease model mice; assay: Foot printing assay (stride length) in rotenone-induced Parkinson's disease model mice; format: in vivo, C57BL/6 mice; details: rotenone 30 mg/kg orally, Example 124 40 mg/kg IP once a day for 35 days
Method: as §6, §1, §2, §7
Foot printing assay was performed using the Parkinson's disease model mice of Biological Experiment Example 1 as follows. Mice paws were dipped with non-toxic water paints (forelimbs in green and hind limbs in blue). Mice were placed in the corner of the enclosed maze with white paper lined through the maze and allowed to walk along the maze freely. […] Fore limb-stride length and hind limb-stride length were measured using ImageJ (NIH).

Iba-1-positive microglia = assay: Iba-1 immunohistochemistry, activation level of microglia in striatum of rotenone mice; format: in vivo, C57BL/6 mice
Method: as §1, §2, §3, §8, §9

SMILES: CO[C@@H](c1ccccc1Cl)[C@H](C)OC(N)=O [Example 124, 1-(2-chlorophenyl)-(S)-1-methoxypropyl-(S)-2-carbamate]
- accumulation of α-synuclein in the soma (p-α-synuclein inclusions in TH+ neurons) [1]: dramatically decreased
- amount of APP protein (APP/B-actin) [2]: decreased
- rotenone-induced TH+ cell death (number of TH positive cells) [3]: significantly blocked
- tyrosine hydroxylase (TH) expression (TH/B-actin) [4]: increased
- α-tubulin acetylation levels [5]: increase
- pole test: time climbing down the pole / score [6]: slightly attenuated
- activation of astrocytes by rotenone (GFAP intensity) (GFAP-positive astrocytes): attenuated
- amount of endogenous amyloid-beta (Aβ intensity) (Amyloid-beta (Aβ) [7]): reduced
- phosphorylation of tau protein (p-Tau s262) [8]: decreased
- amount of amyloid-beta (Amyloid-beta (Aβ) [9]): decreased
- stride length of forepaw ([10]; FIG. 2(A)): ameliorated
- stride length of hind paw ([10]; FIG. 2(B)): ameliorated
- efficacy in microglia compared with astrocytes (relative Iba-1 and GFAP intensity) (Iba-1-positive microglia; FIG. 6(C-D)): more dramatic and obvious in microglia than in astrocytes
- activation of microglia by rotenone (Iba-1 intensity) (Iba-1-positive microglia; rotenone 30 mg/kg orally, Example 124 40 mg/kg IP once a day for 35 days, FIG. 6): attenuated
